The values that follow come from PMC5887109, “Unravelling the Molecular Determinants of Bee Sensitivity to Neonicotinoid Insecticides” (Current Biology, 2018).

The target in data set [1] is nicotinic acetylcholine receptor (nAChR). Nature of the data set: [3H]imidacloprid displacement, bumble bee head membrane preparations. It is filed as binding, B. terrestris. The settings on record: bumble bee head membranes; 95% CI given in text. As for the experimental part:
[^3H]imidacloprid (specific activity 1.406 GBq μmol^−1) displacement studies were conducted using membrane preparations isolated from frozen (−80°C) honeybee and bumble bee heads, respectively, following previously published protocols. Briefly, bee heads weighing 10cg were homogenized in 200cml ice-cold 0.1cM potassium phosphate buffer, pH 7.4 containing 95cmM sucrose using a motor-driven Ultra Turrax blender. […] Assays were performed in a 96-well microtiter plate with bonded GF/C filter membrane (Packard UniFilter-96, GF/C) and consisted of 200 μL of homogenate (0.48cmg protein), 25 μL of [^3H]imidacloprid (576cpM) and 25 μL of competing ligand. Ligand concentrations used ranged from 0.001 to 10c000cnM and were tested at least in duplicate per competition assay. The assay was started by the addition of homogenate and incubated for 60cmin at room temperature. Bound [^3H]imidacloprid was quantified by filtration into a second 96-well filter plate (conditioned with ice-cold 100cmM potassium phosphate buffer, pH 7.4 (including BSA 5cg liter−1)) using a commercial cell harvester (Brandel). […] Each well was then loaded with 25 μL of scintillation cocktail (Microszint-O-Filtercount, Packard) and the plate counted in a Topcount scintillation counter (Packard). Non-specific binding was determined using a final concentration of 10cμM unlabelled imidacloprid. […]

Another data set concerns Bombus terrestris. Nature of the data set: Acute contact (topical) insecticide bioassay of bumble bees. The settings on record: no synergist, 48 hours after application. Here is the method:
(§1) Acute contact insecticide assays were performed on female A. mellifera following standard methods OECD 2013 [30]. Bioassays of B. terrestris were based on the OECD guidelines developed for honeybees but with bees assayed in individual Nicot cages. Bees were starved of sucrose solution for up to 2 hr to encourage feeding during the experiment. […] Controls were fed a solution of sucrose containing a concentration of acetone matching that of the highest treatment concentration. After 4-6 hr the syringes were assessed to see if bees had consumed the insecticide-sucrose solution. Those that had not consumed all of the solution were excluded from the experiment. Mortality was assessed 48 hr after feeding and lethal concentrations (LC50 values) were calculated by probit analysis using Genstat version 16 (VSN International). For synergist bioassays, B. terrestris or A. mellifera workers were first treated with 20 μg of piperonyl butoxide or 1 μg of aminobenzotriazole applied to the dorsal thorax. Synergist bioassays included an additional control group treated only with the synergist. 1 hr after synergist application, bees were then treated with the appropriate insecticide dosage as above.

Data set [2] deals with bumble bees (Bombus terrestris). Nature of the data set: Bumble bee contact and oral bioassays taken together, EPA rating. Particulars: depends on route of exposure. As for the experimental part:
as §1

The next data set deals with honeybees. The settings on record: depends on route of exposure; cited from earlier work.

`O=[N+]([O-])NC1=NCCN1Cc1ccc(Cl)nc1` [imidacloprid]: the IC50 (usually the concentration needed to halve the response being measured) in data set [1] amounted to 0.71 nM. For the same compound, the LD50 in the data set on Bombus terrestris came out at 0.38 μg/bee. In addition, the EPA toxicity category result (in data set [2]; in the data set with honeybees) was “highly toxic” each time.
As to `N#C/N=C1\SCCN1Cc1ccc(Cl)nc1` [thiacloprid], the IC50 in data set [1] was 0.62 nM. Besides, in the data set on Bombus terrestris, the LD50 is on record as over 100 μg/bee. Further, the EPA toxicity category result (in data set [2]; in the data set on honeybees) was “slightly toxic” or “practically non-toxic” throughout.
